Measurements taken from PMC4325551, “Inhibition of Rat 5α-Reductase Activity and Testosterone-Induced Sebum Synthesis in Hamster Sebocytes by an Extract of Quercus acutissima Cortex” (Evidence-based Complementary and Alternative Medicine : eCAM, 2015).

Columns and labels:
[1] = biological target: T1, rat liver microsomal 5α-reductase (Rattus norvegicus, UniProt P24008); assay: 5α-reductase assay using rat liver microsomes (testosterone metabolism, HPLC and TLC); assay type: biochemical; conditions: for Inhibitory activity on 5α-reductase (% of control): mean ± SEM, N = 3
T1 construct: The reaction was started with the addition of liver microsomes (20 μg protein); from tissue; host or cells: liver microsomes of male Sprague–Dawley rats
T1 sequence (P24008 1-259): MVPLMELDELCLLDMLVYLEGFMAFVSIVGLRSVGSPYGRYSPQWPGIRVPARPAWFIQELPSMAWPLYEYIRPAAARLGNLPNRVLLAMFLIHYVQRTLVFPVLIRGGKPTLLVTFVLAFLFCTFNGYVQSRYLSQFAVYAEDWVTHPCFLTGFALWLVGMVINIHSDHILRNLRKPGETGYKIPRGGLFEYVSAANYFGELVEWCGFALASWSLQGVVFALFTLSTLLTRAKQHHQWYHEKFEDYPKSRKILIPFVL
Protocol: Rat liver microsomes were prepared by the method of Lee et al.. Male Sprague–Dawley rats (body weight, 300 to 320 g; Clea Japan, Tokyo, Japan) were fasted overnight to decrease the concentration of liver glycogen and then sacrificed. The liver was excised and washed in ice-cold homogenizing buffer containing 0.32 mol/L sucrose, 1 mmol/L dithiothreitol (Wako Pure Chemical Industries), and 20 mmol/L potassium phosphate, pH 6.5. The following procedures were all carried out at 4°C. The tissue was minced with a pair of scissors and then homogenized in homogenizing buffer using a Potter-Elvehjem grinder. The homogenate was then centrifuged at 10 000 g for 10 min. The resulting pellet was washed with two pellet volumes of homogenizing buffer and centrifuged again. The supernatants from the two centrifugations were combined and further centrifuged at 105 000 g for 1 h. The resulting pellet (microsomes) was suspended in homogenizing buffer and centrifuged again. The microsomes were resuspended in homogenizing buffer. The microsome suspension was divided into small aliquots and stored at −80°C. The microsomes were diluted with 40 mmol/L potassium phosphate, pH 6.5, immediately before use. Unlike human liver, rat liver microsomes have the 5α-R1 but not the 5α-R2 isoform.
Briefly, the reaction solution was preincubated with or without a test sample in 1 mmol/L dithiothreitol, 40 mmol/L potassium phosphate, pH 6.5, 100 μmol/L NADPH (Oriental Yeast, Tokyo, Japan), and 3.5 μmol/L testosterone (Wako Pure Chemical Industries) in a final volume of 0.5 mL for 20 min at room temperature. The reaction was started with the addition of liver microsomes (20 μg protein). After incubation at 37°C for 30 min, the reaction solution was extracted with 2 mL ethyl acetate. The ethyl acetate phase (upper phase) was transferred to a tube and evaporated using a centrifugal concentrator (Tomy Seiko, Tokyo, Japan). Testosterone and the metabolites were measured by two chromatography methods, HPLC (Shimadzu, Kyoto, Japan) and TLC.
The residue was dissolved in acetonitrile and analyzed using the HPLC system. The reverse-phase HPLC analysis was performed on a C18 column (3.0 × 150 mm, GL Science, Japan) at a column oven temperature of 50°C and UV detection of 240 nm. The isocratic mobile phase of acetonitrile/water (50 : 50, v/v) was flowed at 0.4 mL/min through the column.
To detect the steroids by TLC, the residue containing steroids was taken up in ethanol and chromatographed on a TLC plate (Silica gel 60 F254, Merck, Darmstadt, Germany), using ethyl acetate-hexane (1 : 1, v/v) as the developing solvent system at room temperature. Testosterone, (Tokyo Chemical Industry Co., Tokyo, Japan) and 5α-androstane-3α,17β-diol (Sigma-Aldrich) were applied to TLC as androgen standards. The plate was exposed to 10% sulfuric acid using an atomizer and then heated on a hot plate. The fluorescent signals were visualized by irradiation of UV light at 302 nm using a ChemiDoc XRS Plus (BIO-RAD, Hercules, CA).

[2] = tested on: primary hamster sebocytes (Ha-SE); assay: testosterone-induced sebum synthesis (lipogenesis) assay in hamster sebocytes; assay type: cell-based; conditions: 10 and 30 μmol/L; 10 μmol/L testosterone; 8 days
Protocol: (§1) Primary hamster sebocytes (Ha-SE) were purchased from Kurabo Industries (Osaka, Japan) and maintained in a culture medium containing […] epidermal growth factor (EGF), 2% (v/v) human serum (HS), 8% (v/v) heat-inactivated fetal bovine serum (FBS) (Kurabo Industries), and a cocktail of penicillin G and streptomycin (Sigma-Aldrich). All assays using Ha-SE cells were performed between the 5th and 6th passage. For the study dealing with sebum synthesis, a sebum detecting kit (Kurabo industries) was used. […] The amount of sebum synthesized was evaluated by measuring lipid production and cell growth according to the manufacturer's instructions. That is, the lipid in sebaceous cells was stained with Oil Red O, extracted in 100% isopropanol, and quantified by a spectrometer at 520 nm. The cell growth was measured using XTT reagent (Biological Industries, Beit Haemek, Israel). The lipogenesis was calculated following the formula as relative sebum synthesis per cell number: lipogenesis = A/B, where A = OD 520 nm of 200 μL extract solution of 300 μL 100% isopropanol for extract of Oil red O dye and B = OD 465/630 nm of 200 μL of 450 μL culture fluids containing XTT reagent following incubation for 30 min. […]

[3] = tested on: primary hamster sebocytes (Ha-SE); assay: cell cytotoxicity (XTT) in undifferentiated hamster sebocytes; conditions: 24 h with BK (10, 30 μg/mL) or pentagalloyl glucose (10, 30 μmol/L) in the presence of EGF
Protocol: Four Figures and Two Tables
Hamster-derived sebaceous gland cells (Ha-SE) were precultured until confluent in the presence of 10 ng/mL epidermal growth factor (EGF), and further cultured with 10, 30 […]
vehicle in the presence of EGF. Twenty four hours later, cell cytotoxicity was measured […]
Fig. S2. Bioconversion of exogenous dihydrotestosterone to 5α-androstane-3,17-diol by rat liver microsomal enzymes […]
min in the presence or absence of rat liver microsomes (40 μg/mL) and the co-factors.
The metabolites were extracted with ethyl acetate after incubation, and analyzed by TLC. All androgen standards were applied at 0.1 μg/μL/spot. T.: testosterone, DHT: dihydrotestosterone, A.diol: 5α-androstane-3α,17β-diol

[4] = tested on: human intestinal epithelial Caco-2 cells; set-up: method as in PMID 16890919, PMID 16580640; conditions: transport inhibited by phlorizin (SGLT-1 inhibitor); ref [34], [35]; cited from earlier work
[5] = tested on: primary hamster sebocytes (Ha-SE); assay: insulin-induced sebum synthesis (lipogenesis) assay in hamster sebocytes; assay type: cell-based; conditions: 10 and 30 μmol/L; 10 μg/mL insulin; 8 days
Protocol: as §1

## O=C(OC[C@H]1O[C@@H](OC(=O)c2cc(O)c(O)c(O)c2)[C@H](OC(=O)c2cc(O)c(O)c(O)c2)[C@@H](OC(=O)c2cc(O)c(O)c(O)c2)[C@@H]1OC(=O)c1cc(O)c(O)c(O)c1)c1cc(O)c(O)c(O)c1 [Pentagalloyl glucose, 1,2,3,4,6-penta-O-galloyl glucose]
[1]; at 10 and 100 μmol/L
  inhibition of 5α-reductase activity: more than 50%
[1]; test sample 0.1 μmol/L, testosterone 3.5 μmol/L, 30 min, rat liver microsomes 40 μg/mL, HPLC
  Inhibitory activity on 5α-reductase (% of control): 5.4 ± 1.3 % of control
[1]; test sample 1 μmol/L, testosterone 3.5 μmol/L, 30 min, rat liver microsomes 40 μg/mL, HPLC
  Inhibitory activity on 5α-reductase (% of control): 36.1 ± 6.5 % of control
[1]; test sample 10 μmol/L, testosterone 3.5 μmol/L, 30 min, rat liver microsomes 40 μg/mL, HPLC
  Inhibitory activity on 5α-reductase (% of control): 83.5 ± 1.3 % of control
[1]; test sample 100 μmol/L, testosterone 3.5 μmol/L, 30 min, rat liver microsomes 40 μg/mL, HPLC
  Inhibitory activity on 5α-reductase (% of control): 107.9 ± 2.2 % of control
[1]; testosterone 3.5 μmol/L, 30 min, rat liver microsomes 40 μg/mL, HPLC
  IC50: 2500 nM
[2]
  testosterone-induced lipogenesis: significantly downregulated
[3]
  cell metabolic activities: not changed compared with the vehicle control
[4]
  transport across Caco-2 monolayer: crosses a monolayer
[5]
  insulin-induced lipogenesis: significantly downregulated
